The results in this text go back to ChEMBL document CHEMBL1201862, “PubChem BioAssay data set” (2004).

Experiment in all cases: growth of human tumour cells (NCI), 48 h
Assay [1] concerns NCI-H226.
Assay [2] relates to MDA-MB-435.
Assay [3] deals with TK-10.
Assay [4] concerns HCT-116.
The subject of assay [5] is NCI/ADR-RES.
Assay [6] deals with IGROV-1.
Assay [7] concerns SK-MEL-5.
Assay [8] relates to NCI-H23.
The test system of assay [9] is OVCAR-8.
Assay [10] concerns COLO 205.
For assay [11], the system named is EKVX.
Assay [12] has as its system UACC-257.
The test system of assay [13] is SNB-75.
For assay [14], the system named is SN12C.
In assay [15] the test system is A549.
In assay [16] the test system is MDA-N.
The test system of assay [17] is HCT-15.
Assay [18] deals with M14.
Assay [19] has as its system CCRF-CEM.

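All cell lines were grown in 96-well plates and treated with compound for 48 hours. GI50 = concentration required for 50% inhibition of growth.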 Calls of active or inactive are those of the source. Cut-off read from the data, not from the text of the source: active = GI50 up to about 1.1 µM and inactive = higher. Where a SMILES comes first, the peptide text is derived from it. [ ]: non-standard residue; d: D form. Ac5c = NC1(C(=O)O)CCCC1

For `CCNC1=C(NC(=O)CC)C(=O)c2ccccc2C1=O`, the GI50 was > 100 µM (inactive) in [1]; > 10 µM (inactive) in assay [2]; > 100 µM (inactive) in assay [3]; 36.7 µM (inactive) in assay [4]; 58.7 µM (inactive) in assay [5]; > 100 µM (inactive) in assay [6]. The GI50 in assay [7] was 54.1 µM (inactive); in assay [8], 70.8 µM (inactive); in assay [9] it was 79.1 µM (inactive); in [10], 46.5 µM (inactive); in [11] it was > 100 µM (inactive); in assay [12] it was 30.2 µM (inactive). Further, the GI50 was > 100 µM (inactive) in assay [13]; 73.3 µM (inactive) in assay [14]; > 100 µM (inactive) in assay [15]; > 100 µM (inactive) in [16]; 64.3 µM in assay [17]; 31.7 µM (inactive) in [18]. Besides, the GI50 in [19] was 56 µM (inactive).
For `COC1CC(C)(NC(C)=O)C2OC(c3ccccc3)OCC2O1` (configuration not stated), the GI50 in assay [1], in assay [2], in assay [3], in assay [4], in assay [5] and in assay [6] was > 100 µM (inactive) each time. The GI50 in assay [7], in assay [8], in assay [9], in assay [10], in assay [11] and in assay [12] was > 100 µM (inactive) throughout. Besides, the GI50 is > 100 µM (inactive) in assay [13]; > 100 µM (inactive) in [14]; > 100 µM (inactive) in [15]; > 100 µM (inactive) in assay [16]; over 100 µM in assay [17]; > 100 µM (inactive) in assay [18]. Also, in [19], the GI50 was > 100 µM (inactive).
Consider `CCCCc1ccc(C#CC#Cc2ccc(CCCC)s2)s1`, for which the GI50 in assay [1], in assay [2], in assay [3], in assay [4], in [5] and in assay [6] was > 100 µM (inactive) each time. Further, the GI50 in assay [7], in assay [8], in [9], in assay [10], in assay [11] and in assay [12] was > 100 µM (inactive) in each case. Moreover, the GI50 is > 100 µM (inactive) in assay [13]; > 100 µM (inactive) in assay [14]; > 100 µM (inactive) in [16]; over 100 µM in assay [17]; > 100 µM (inactive) in assay [18]; 4.39 µM (inactive) in assay [19].
As to `COC(=O)C1(NC(=O)C(C)NC(=O)C(CCCCN)NC(=O)C(CC(C)C)NC(C)=O)CCCC1` (configuration not stated) (Ac-LKA[Ac5c]-OMe; configuration not given here), the GI50 in assay [2], in assay [3], in assay [4], in [6], in [7] and in assay [9] was > 100 µM (inactive) each time. Besides, the GI50 in [10], in [11], in [12], in assay [13], in assay [14] and in assay [15] was > 100 µM (inactive) in each case. The GI50 in assay [16] was > 100 µM (inactive); in assay [17], over 100 µM; in assay [18] it was > 100 µM (inactive); in assay [19] it was > 100 µM (inactive).
